Measurements as given in patent US12448368B2, “Indole compounds as androgen receptor modulators” (NIDO BIOSCIENCES, INC., priority 2020, dated 2025).

target: T1, androgen receptor (AR) (Homo sapiens, UniProt P10275, T878A); experiment: AR reporter assay in LNCaP cells expressing ARR2PB-FireflyLuc and CMV-RenillaLuc, antagonist mode (% remaining activity, IC50); type: cell-based; conditions: 48 h at 37° C., class symbols A-D, read-out: IC50
T1 construct: LNCaP cells expressing ARR2PB-FireflyLuc and CMV-RenillaLuc; endogenous in cells; host or cells: LNCaP cells carrying ARR2PB-FireflyLuc and CMV-RenillaLuc reporters
T1 sequence (P10275 1-920 T878A): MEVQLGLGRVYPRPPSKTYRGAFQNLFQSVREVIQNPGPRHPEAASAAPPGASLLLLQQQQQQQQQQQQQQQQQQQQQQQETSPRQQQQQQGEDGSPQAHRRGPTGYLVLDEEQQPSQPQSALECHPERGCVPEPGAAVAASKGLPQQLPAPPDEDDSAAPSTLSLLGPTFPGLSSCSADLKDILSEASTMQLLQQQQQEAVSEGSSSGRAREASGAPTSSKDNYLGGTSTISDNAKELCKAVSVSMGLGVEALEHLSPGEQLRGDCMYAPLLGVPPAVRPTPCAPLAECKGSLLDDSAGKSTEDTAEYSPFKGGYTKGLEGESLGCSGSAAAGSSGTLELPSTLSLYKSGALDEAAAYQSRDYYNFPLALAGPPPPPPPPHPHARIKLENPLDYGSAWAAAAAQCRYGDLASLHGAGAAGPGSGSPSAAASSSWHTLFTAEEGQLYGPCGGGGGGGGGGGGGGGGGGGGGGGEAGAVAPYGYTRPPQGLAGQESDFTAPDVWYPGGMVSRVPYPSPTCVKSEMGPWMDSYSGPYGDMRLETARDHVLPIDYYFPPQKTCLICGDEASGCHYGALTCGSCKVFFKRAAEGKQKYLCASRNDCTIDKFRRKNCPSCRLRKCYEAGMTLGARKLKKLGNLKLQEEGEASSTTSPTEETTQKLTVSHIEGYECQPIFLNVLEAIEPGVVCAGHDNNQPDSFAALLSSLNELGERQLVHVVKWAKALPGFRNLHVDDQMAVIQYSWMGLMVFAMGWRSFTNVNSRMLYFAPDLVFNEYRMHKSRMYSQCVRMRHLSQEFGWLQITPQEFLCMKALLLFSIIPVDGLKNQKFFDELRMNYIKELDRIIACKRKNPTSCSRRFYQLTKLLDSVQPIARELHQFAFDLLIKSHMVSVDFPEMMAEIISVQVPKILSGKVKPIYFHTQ
Protocol: LNCaP cells expressing ARR2PB-FireflyLuc and CMV-RenillaLuc were treated with indicated concentrations of test compounds, enzalutamide (negative control), or DHT (positive control)+/−0.5 nM DHT for 48 h at 37° C. […] Remaining activity (antagonist mode) was calculated as % Remaining Activity=100×[(Readsample−LCave)/(HCave−LCave)] where HC is cells treated with 0.5 nM DHT only and LC is cells treated with 10 uM enzalutamide+0.5 nM DHT. Activation (agonist mode) was calculated as % Activation=100×[(ReadSample−LCave)/(HCave−LCave)] where HC is cells treated with 1 uM DHT and LC is cells treated with DMSO. Dose response curves and IC50 values were calculated using non-linear regression analysis in XLfit.
The designation “A” indicates an IC50 value of >10 μM, “B” indicates an IC50 value between 1 μM and 10 μM; “C” indicates an IC50 value between 100 nM and 1 μM; and “D” indicates an IC50 value of less than 100 nM.

| Compound | IC50 |
| --- | --- |
| Fc1ccc(-c2n[nH]c3ncccc23)nc1 [Compound 116] | 1 to 10 µM |
| FC(F)(F)c1ccc(-c2c[nH]c3ccccc23)nc1 [Compound 118] | 0.1 to 1 µM |
| Fc1ccc(-c2c[nH]c3ccccc23)nc1 [Compound 119] | 0.1 to 1 µM |
| N#Cc1cccc2c(-c3ccc4ccc(F)cc4n3)c[nH]c12 [Compound 120] | < 0.1 µM |
| N#Cc1cccc2c(-c3ccc4c(n3)CCCN4)c[nH]c12 [Compound 121] | < 0.1 µM |
| CC1(C)NC(=O)c2ccc(-c3c[nH]c4cc(F)c(F)cc34)nc21 [Compound 122] | 0.1 to 1 µM |
| CCOC(=O)c1coc(-c2c[nH]c3c(C)cccc23)n1 [Compound 123] | > 10 µM |
| Cc1nc(-c2c[nH]c3cc(F)c(F)cc23)ccc1N [Compound 124] | 1 to 10 µM |
| Cc1nc(-c2c[nH]c3c(C#N)cccc23)ccc1N [Compound 125] | 0.1 to 1 µM |
| Fc1ccc(-c2c[nH]c3ncccc23)nc1 [Compound 126] | 0.1 to 1 µM |
| N#Cc1cccc2c(-c3ccc(F)cn3)c[nH]c12 [Compound 127] | < 0.1 µM |
| c1cnc2[nH]cc(-c3ccc(C4CC4)cn3)c2c1 [Compound 128] | 0.1 to 1 µM |
| c1cnc2[nH]cc(-c3ccc(C4COC4)cn3)c2c1 [Compound 129] | 1 to 10 µM |
| Cc1nc(-c2c[nH]c3c(C#N)cc(F)cc23)ccc1N [Compound 130] | 0.1 to 1 µM |
| Cc1nc(-c2c[nH]c3c(C#N)cc(F)cc23)ccc1F [Compound 131] | < 0.1 µM |
| N#Cc1cccc2c(-c3ccc(N)cn3)c[nH]c12 [Compound 132] | 1 to 10 µM |
| Cc1cccc(-c2c[nH]c3c(C#N)cccc23)n1 [Compound 133] | 0.1 to 1 µM |
| Cc1nc(-c2c[nH]c3cccnc23)ccc1N [Compound 134] | > 10 µM |
| Cc1nc(-c2c[nH]c3ncccc23)ccc1N [Compound 135] | 1 to 10 µM |
| CC1NC(=O)c2ccc(-c3c[nH]c4cc(F)c(F)cc34)nc21 (centres unmarked) [Compound 136] | 0.1 to 1 µM |
| N#Cc1cccc2c(-c3ccc(N)c(Cl)n3)c[nH]c12 [Compound 137] | 0.1 to 1 µM |
| Cc1cc(-c2c[nH]c3c(C#N)cccc23)ncc1N [Compound 138] | 1 to 10 µM |
| N#Cc1cccc2c(-c3ccc(N)c(C4CC4)n3)c[nH]c12 [Compound 139] | < 0.1 µM |
| Cc1nc(-c2c[nH]c3c(C)cccc23)ccc1N [Compound 140] | 1 to 10 µM |

| Compound | IC50 |
| --- | --- |
| Cc1nc(-c2c[nH]c3c(F)cccc23)ccc1N [Compound 141] | 1 to 10 µM |
| Cc1nc(-c2c[nH]c3c(C4CC4)cccc23)ccc1N [Compound 142] | 1 to 10 µM |
| CC1(C)NC(=O)c2ccc(-c3c[nH]c4cc(F)c(F)cc34)cc21 [Compound 143] | 1 to 10 µM |
| Cc1nc(-c2c[nH]c3c(-c4nnco4)cccc23)ccc1N [Compound 144] | > 10 µM |
| CNC(=O)c1cccc2c(-c3ccc(N)c(C)n3)c[nH]c12 [Compound 145] | > 10 µM |
| CNc1ccc(-c2c[nH]c3c(C#N)cccc23)nc1C [Compound 146] | < 0.1 µM |
| CCNc1ccc(-c2c[nH]c3c(C#N)cccc23)nc1C [Compound 147] | 0.1 to 1 µM |
| Cc1nc(-c2c[nH]c3c(C#N)cccc23)ccc1N(C)C [Compound 148] | < 0.1 µM |
| Cc1nc(-c2c[nH]c3c(C#N)cccc23)cnc1N [Compound 149] | 0.1 to 1 µM |
| Cc1ccc2c(-c3ccc(N)c(C)n3)c[nH]c2c1C#N [Compound 150] | 1 to 10 µM |
| Cc1nc(-c2c[nH]c3c(C#N)c(Cl)ccc23)ccc1N [Compound 151] | 0.1 to 1 µM |
| Cc1cc(C#N)c2[nH]cc(-c3ccc(N)c(C)n3)c2c1 [Compound 152] | 1 to 10 µM |
| Cc1nc(-c2c[nH]c3c(C#N)cc(Cl)cc23)ccc1N [Compound 153] | 1 to 10 µM |
| NCc1cc(F)cc2c(-c3ccc4ncccc4n3)c[nH]c12 [Compound 154] | 0.1 to 1 µM |
| Cc1nc(-c2c(C)[nH]c3c(C#N)cccc23)ccc1N [Compound 155] | > 10 µM |
| CN1C(=O)c2ccc(-c3c[nH]c4c(C#N)cccc34)nc2C1(C)C [Compound 156] | 0.1 to 1 µM |
| COCCN1C(=O)c2ccc(-c3c[nH]c4c(C#N)cccc34)nc2C1(C)C [Compound 157] | > 10 µM |
| CC1(C)c2nc(-c3c[nH]c4c(C#N)cccc34)ccc2C(=O)N1C1CCOC1 (centres unmarked) [Compound 158] | > 10 µM |
| Cc1nc(-c2c[nH]c3c(C(F)(F)F)cccc23)ccc1N [Compound 159] | 0.1 to 1 µM |
| CC(=O)c1cccc2c(-c3ccc(N)c(C)n3)c[nH]c12 [Compound 160] | > 10 µM |
| Cc1cccc(-c2c[nH]c3cc(C#N)ccc23)n1 [Compound 161] | 1 to 10 µM |
| Cc1cccc(-c2c[nH]c3ccc(C#N)cc23)n1 [Compound 162] | 1 to 10 µM |
| COCCNc1ccc(-c2c[nH]c3c(C#N)cccc23)nc1C [Compound 163] | 0.1 to 1 µM |
| Cc1nc(-c2c[nH]c3c(C#N)cccc23)ccc1NC1CCOC1 (centres unmarked) [Compound 164] | 0.1 to 1 µM |

| Compound | IC50 |
| --- | --- |
| COCCOc1ccc(-c2c[nH]c3c(C#N)cccc23)nc1C [Compound 165] | 0.1 to 1 µM |
| COc1ccc(-c2c[nH]c3c(C#N)cccc23)nc1C [Compound 166] | < 0.1 µM |
| COCCOc1cccc(-c2c[nH]c3c(C#N)cccc23)n1 [Compound 167] | 1 to 10 µM |
| N#Cc1cccc2c(-c3cccc(OC4CCNC4)n3)c[nH]c12 (centres unmarked) [Compound 168] | > 10 µM |
| COCCOc1nc(-c2c[nH]c3c(C#N)cccc23)ccc1N [Compound 170] | 0.1 to 1 µM |
| N#Cc1cccc2c(-c3cnc(OC(F)F)c(N)c3)c[nH]c12 [Compound 171] | < 0.1 µM |
| N#Cc1cccc2c(-c3cnc(N)c(OC(F)F)n3)c[nH]c12 [Compound 172] | < 0.1 µM |
| CN1C(=O)c2ccc(-c3c[nH]c4c(C#N)cccc34)nc2C1(C)CO (centres unmarked) [Compound 173] | 1 to 10 µM |
| N#Cc1cccc2c(-c3cnccn3)c[nH]c12 [Compound 174] | 1 to 10 µM |
| Cc1cncc(-c2c[nH]c3c(C#N)cccc23)n1 [Compound 175] | 0.1 to 1 µM |
| N#Cc1cccc2c(-c3ccccn3)c[nH]c12 [Compound 176] | 0.1 to 1 µM |
| COCCN(C)c1cncc(-c2c[nH]c3c(C#N)cccc23)n1 [Compound 177] | 0.1 to 1 µM |
| N#Cc1cccc2c(-c3cccc(N4CCC4)n3)c[nH]c12 [Compound 178] | 0.1 to 1 µM |
| Cc1nc2ccc(-c3c[nH]c4c(C#N)cccc34)cc2s1 [Compound 179] | 0.1 to 1 µM |
| N#Cc1cccc2c(-c3ccc4nc(N)sc4c3)c[nH]c12 [Compound 180] | 1 to 10 µM |
| Cc1nc(-c2c[nH]c3c(C#N)cccc23)cnc1NC1CCNC1 (centres unmarked) [Compound 181] | 0.1 to 1 µM |
| Cc1nc(-c2c[nH]c3c(C#N)cccc23)cnc1NC1CCN(C)C1 (centres unmarked) [Compound 182] | 0.1 to 1 µM |
| Cc1nc(-c2c[nH]c3c(C#N)cccc23)cnc1OC1CCNC1 (centres unmarked) [Compound 183] | 0.1 to 1 µM |
| CC1(C)NC(=O)c2ccc(-c3c[nH]c4c(C#N)c(F)ccc34)nc21 [Compound 184] | 0.1 to 1 µM |
| CC1(C)NC(=O)c2ccc(-c3c[nH]c4c(C#N)c(Cl)ccc34)nc21 [Compound 185] | 1 to 10 µM |
| Cc1nc(-c2c[nH]c3c(C(F)(F)F)cccc23)cnc1N [Compound 186] | 0.1 to 1 µM |
| CC1(C)NC(=O)c2ccc(-c3c[nH]c4c(C(F)(F)F)cccc34)nc21 [Compound 187] | < 0.1 µM |

same assay, conditions: IC50 (μM), 48 h at 37° C., class symbols A-D

| Compound | IC50 |
| --- | --- |
| c1ccc2nc(-c3n[nH]c4ccccc34)ccc2c1 [Compound 117] | 0.1 to 1 µM |
